Reference: patent US8946230B2, “Aryl- and heteroaryl- nitrogen-heterocyclic compounds as PDE10 inhibitors” (Amgen Inc., priority 2010, dated 2015)

Biological target: T1, PDE10 (UniProt Q8CA95)
T1 sequence (Q8CA95 1-790): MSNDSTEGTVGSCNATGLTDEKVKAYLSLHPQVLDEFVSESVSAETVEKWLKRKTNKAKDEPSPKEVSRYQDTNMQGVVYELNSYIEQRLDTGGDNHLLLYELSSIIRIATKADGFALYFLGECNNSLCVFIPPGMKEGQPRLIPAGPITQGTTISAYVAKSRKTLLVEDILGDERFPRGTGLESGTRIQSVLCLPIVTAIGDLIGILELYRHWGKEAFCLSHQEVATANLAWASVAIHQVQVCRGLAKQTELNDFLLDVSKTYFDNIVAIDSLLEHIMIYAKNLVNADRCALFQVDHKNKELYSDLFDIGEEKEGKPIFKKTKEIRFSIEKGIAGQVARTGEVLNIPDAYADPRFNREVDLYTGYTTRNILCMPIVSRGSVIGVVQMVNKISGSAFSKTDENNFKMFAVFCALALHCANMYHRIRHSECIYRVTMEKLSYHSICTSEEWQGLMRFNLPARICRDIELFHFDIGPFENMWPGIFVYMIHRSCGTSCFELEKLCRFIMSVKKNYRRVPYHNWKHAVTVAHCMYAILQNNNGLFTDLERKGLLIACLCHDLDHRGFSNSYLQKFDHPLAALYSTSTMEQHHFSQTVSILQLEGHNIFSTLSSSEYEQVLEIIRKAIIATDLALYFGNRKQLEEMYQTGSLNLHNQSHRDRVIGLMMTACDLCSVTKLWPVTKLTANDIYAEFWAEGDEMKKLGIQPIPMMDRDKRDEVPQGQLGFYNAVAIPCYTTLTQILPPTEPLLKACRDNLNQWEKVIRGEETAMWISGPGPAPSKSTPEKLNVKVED
Experiment: PDE10 enzyme inhibition, IMAP TR-FRET assay (Example A: MPDE10A7 Enzyme Activity and Inhibition)
Assay type: biochemical
Conditions: Table 1A, Examples 11-56; read-out: PDE10 IC50
Description: MPDE10A7 Enzyme Activity and Inhibition Enzyme Activity. An IMAP TR-FRET assay was used to analyze the enzyme activity (Molecular Devices Corp., Sunnyvale Calif.). 5 μL of serial diluted PDE10A (BPS Bioscience, San Diego, Calif.) or tissue homogenate was incubated with equal volumes of diluted fluorescein labeled cAMP or cGMP for 60 min in 384-well polystyrene assay plates (Corning, Corning, N.Y.) at room temperature. After incubation, the reaction was stopped by adding 60 μL of diluted binding reagents and was incubated for 3 hours to overnight at room temperature. The plates were read on an Envision (Perkin Elmer, Waltham, Mass.) for time resolved fluorescence resonance energy transfer. The data were analyzed with GraphPad Prism (La Jolla, Calif.). Enzyme Inhibition. To check the inhibition profile, 5 μL of serial diluted compounds were incubated with 5 μL of diluted PDE10 enzyme (BPS Bioscience, San Diego, Calif.) or tissue homogenate in a 384-well polystyrene assay plate (Corning, Corning, N.Y.) for 30 min at room temperature. After incubation, 10 μL of diluted fluorescein labeled cAMP or cGMP substrate were added and incubated for 60 min at room temperature. The reaction was stopped by adding 60 μL of diluted binding reagents and plates were read on an Envision (Perkin Elmer, Waltham, Mass.) for time resolved fluorescence resonance energy transfer. The data were analyzed with GraphPad Prism (La Jolla, Calif.).

Structure (SMILES) | IC50
COc1ccccc1-c1nccnc1N1CC(c2nc3cc(Cl)ccc3[nH]2)C1 [Example 27, 5-chloro-2-{1-[3-(2-methoxy-phenyl)-pyrazin-2-yl]-azetidin-3-yl}-1H-benzoimidazole] | 4330 nM
COc1ccc(-c2nccnc2N2CC(c3nc4cc(Cl)ccc4[nH]3)C2)cc1 [Example 29, 5-chloro-2-{1-[3-(4-methoxy-phenyl)-pyrazin-2-yl]-azetidin-3-yl}-1H-benzoimidazole] | 110 nM
c1ccc(-c2nccnc2N2CCC(c3nc4cc(C5CC5)ccc4[nH]3)CC2)cc1 [Example 13, 5-Cyclopropyl-2-[1-(3-phenyl-pyrazin-2-yl)-piperidin-4-yl]-1H-benzoimidazole] | 277 nM
O=C(c1cccnc1N1CC(c2nc3cc(Cl)ccc3[nH]2)C1)N1CCOCC1 [Example 17, {2-[3-(5-chloro-1H-benzoimidazol-2-yl)-azetidin-1-yl]-pyridin-3-yl}-morpholin-4-yl-methanone] | 32900 nM
N#Cc1ccc2[nH]c(C3CCN(c4ncccc4Cl)C3)nc2c1 (centres unmarked) [Example 11, 2-[1-(3-chloro-pyridin-2-yl)-pyrrolidin-3-yl]-1H-benzoimidazole-5-carbonitrile] | 310 nM
Clc1ccc2[nH]c(C3CN(c4nccnc4-c4ccccc4Cl)C3)nc2c1 [Example 30, 5-chloro-2-{1-[3-(2-chloro-phenyl)-pyrazin-2-yl]-azetidin-3-yl}-1H-benzoimidazole] | 58.6 nM
Clc1ccc(-c2nccnc2N2CC(c3nc4cc(Cl)ccc4[nH]3)C2)cc1 [Example 32, 5-chloro-2-{1-[3-(4-chloro-phenyl)-pyrazin-2-yl]-azetidin-3-yl}-1H-benzoimidazole] | 141 nM
O=C(c1cccnc1N1CC(c2nc3cc(Cl)ccc3[nH]2)C1)N1CCC1 [Example 16, Azetidin-1-yl-{2-[3-(5-chloro-1H-benzoimidazol-2-yl)-azetidin-1-yl]-pyridin-3-yl}-methanone] | 1180 nM
Cc1ccc(-c2nccnc2N2CC(c3nc4cc(Cl)ccc4[nH]3)C2)cc1 [Example 26, 5-chloro-2-[1-(3-p-tolyl-pyrazin-2-yl)-azetidin-3-yl]-1H-benzoimidazole] | 134 nM
N#Cc1ccc2[nH]c(C3CCN(c4nccnc4N4CCOCC4)C3)nc2c1 (centres unmarked) [Example 12, 2-[1-(3-Morpholin-4-yl-pyrazin-2-yl)-pyrrolidin-3-yl]-1H-benzoimidazole-5-carbonitrile] | 535 nM
N#Cc1ccc2[nH]c(C3CN(c4nccnc4-c4ccccc4)C3)nc2c1 [Example 14, 2-[1-(3-phenyl-pyrazin-2-yl)-azetidin-3-yl]-1H-benzoimidazole-5-carbonitrile] | 161 nM
CC(C)NC(=O)c1cccnc1N1CC(c2nc3cc(Cl)ccc3[nH]2)C1 [Example 21, 2-[3-(5-chloro-1H-benzoimidazol-2-yl)-azetidin-1-yl]-N-isopropyl-nicotinamide] | 4780 nM
Cc1cccc(-c2nccnc2N2CC(c3nc4cc(Cl)ccc4[nH]3)C2)c1 [Example 25, 5-chloro-2-[1-(3-m-tolyl-pyrazin-2-yl)-azetidin-3-yl]-1H-benzoimidazole] | 15 nM
Clc1ccc2[nH]c(C3CN(c4nccnc4-c4cccnc4)C3)nc2c1 [Example 33, 5-chloro-2-[1-(3-pyridin-3-yl-pyrazin-2-yl)-azetidin-3-yl]-1H-benzoimidazole] | 538 nM

Second part, the compound after the results:

IC50 | Structure (SMILES)
1820 nM | Clc1ccc2[nH]c(C3CN(c4ncccc4Br)C3)nc2c1 [Example 52, 2-(1-(3-bromopyridin-2-yl)azetidin-3-yl)-5-chloro-1H-benzo[d]imidazole]
1160 nM | Clc1ccc2[nH]c(C3CN(c4nccnc4Cl)C3)nc2c1 [Example 53, 5-chloro-2-(1-(3-chloropyrazin-2-yl)azetidin-3-yl)-1H-benzo[d]imidazole]
600 nM | Cc1ccc2[nH]c(C3CN(c4nccnc4N4CCOCC4)C3)nc2c1 [Example 46, 4-(3-(3-(5-methyl-1H-benzo[d]imidazol-2-yl)azetidin-1-yl)pyrazin-2-yl)morpholine]
2530 nM | O=C(NC[C@H]1CCCO1)c1nccnc1N1CC(c2nc3cc(Cl)ccc3[nH]2)C1 [Example 37, 3-[3-(5-chloro-1H-benzoimidazol-2-yl)-azetidin-1-yl]-pyrazine-2-carboxylic acid (tetrahydro-furan-2-ylmethyl)-amide]
74 nM | CN(c1ccccc1)c1nccnc1N1CC(c2nc3cc(Cl)ccc3[nH]2)C1 [Example 41, 3-(3-(5-chloro-1H-benzo[d]imidazol-2-yl)azetidin-1-yl)-N-methyl-N-phenylpyrazin-2-amine]
456 nM | Cc1ccc2[nH]c(C3CN(c4nccnc4Cl)C3)nc2c1 [Example 48, 2-(1-(3-chloropyrazin-2-yl)azetidin-3-yl)-5-methyl-1H-benzo[d]imidazole]
520 nM | Clc1ccc2[nH]c(C3CN(c4nc(Cl)ncc4Cl)C3)nc2c1 [Example 55, 5-chloro-2-(1-(2,5-dichloropyrimidin-4-yl)azetidin-3-yl)-1H-benzo[d]imidazole]
3840 nM | Cc1ccc2[nH]c(C3CN(c4ncccc4Cl)C3)nc2c1 [Example 47, 2-(1-(3-chloropyridin-2-yl)azetidin-3-yl)-5-methyl-1H-benzo[d]imidazole]
7.81 nM | Clc1ccc2[nH]c(C3CN(c4ncccc4Cl)C3)nc2c1 [Example 54, 5-chloro-2-(1-(3-chloropyridin-2-yl)azetidin-3-yl)-1H-benzo[d]imidazole]
499 nM | COc1nccnc1N1CC(c2nc3cc(Cl)ccc3[nH]2)C1 [Example 45, 5-chloro-2-(1-(3-methoxypyrazin-2-yl)azetidin-3-yl)-1H-benzo[d]imidazole]
630 nM | Clc1ccc2[nH]c(C3CN(c4nccnc4Nc4ccccc4)C3)nc2c1 [Example 40, 3-(3-(5-chloro-1H-benzo[d]imidazol-2-yl)azetidin-1-yl)-N-phenylpyrazin-2-amine]
305 nM | CN1CCN(c2nccnc2N2CC(c3nc4cc(Cl)ccc4[nH]3)C2)CC1 [Example 43, 5-chloro-2-(1-(3-(4-methylpiperazin-1-yl)pyrazin-2-yl)azetidin-3-yl)-1H-benzo[d]imidazole]

Same assay, conditions: Table 2A, Examples 61-64; read-out: IC50

IC50 | Structure (SMILES)
641 nM | CC1CCN(c2nccnc2N2CC(c3ccc4ccccc4n3)C2)C1 (centres unmarked) [Example 63, 2-{1-[3-(3-Methyl-pyrrolidin-1-yl)-pyrazin-2-yl]-azetidin-3-yl}-quinoline]
17.5 nM | COc1cccc(-c2nccnc2N2CC(c3ccc4ccccc4n3)C2)c1 [Example 64, 2-{1-[3-(3-Methoxy-phenyl)-pyrazin-2-yl]-azetidin-3-yl}-quinoline]

Same assay, conditions: read-out: IC50

Structure (SMILES) | IC50
Clc1ccc2[nH]c(C3CN(c4nc(N5CCOCC5)ncc4Cl)C3)nc2c1 [Example 7, 4-(5-CHLORO-4-(3-(5-CHLORO-1H-BENZO[D]IMIDAZOL-2-YL)AZETIDIN-1-YL)PYRIMIDIN-2-YL)MORPHOLINE] | 155 nM
Clc1ccc2[nH]c(C3CN(c4cc(C5CCOCC5)ccn4)C3)nc2c1 [Example 9, 5-CHLORO-2-(1-(4-(TETRAHYDRO-2H-PYRAN-4-YL)PYRIDIN-2-YL)AZETIDIN-3-YL)-1H-BENZO[D]IMIDAZOLE] | 1170 nM
Cc1ccc2[nH]c(C3CN(c4nccnc4OC4CCOCC4)C3)nc2c1 [Example 1C, 5-METHYL-2-(1-(3-(TETRAHYDRO-2H-PYRAN-4-YLOXY)PYRAZIN-2-YL)AZETIDIN-3-YL)-1H-BENZO[D]IMIDAZOLE] | 239 nM
CNC(=O)c1nccnc1N1CC(c2nc3cc(Cl)ccc3[nH]2)C1 [Example 4, 3-[3-(5-CHLORO-1H-BENZOIMIDAZOL-2-YL)-AZETIDIN-1-YL]-PYRAZINE-2-CARBOXYLIC ACID METHYLAMIDE] | 3880 nM
N#Cc1ccc2[nH]c(C3CCN(c4nccnc4N4CCOCC4)CC3)nc2c1 [Example 1B, 2-[1-(3-MORPHOLIN-4-YL-PYRAZIN-2-YL)-PIPERIDIN-4-YL]-1H-BENZOIMIDAZOLE-5-CARBONITRILE] | 2000 nM

More lines, now with the values ahead:

IC50 | Structure (SMILES)
68 nM | c1cnc(N2CC(c3ccc4ccccc4n3)C2)c(N2CCCCC2)c1 [Example 59, 2′-(3-QUINOLIN-2-YL-AZETIDIN-1-YL)-3,4,5,6-TETRAHYDRO-2H-[1,3′]BIPYRIDINYL]
689 nM | c1ccc2nc(C3CN(c4nccnc4N4CCCCC4)C3)ccc2c1 [Example 57]
